Data published in patent US20250186379A1, “METHODS AND AGENTS FOR DECREASING INSULIN RESISTANCE” (Whitehead Institute for Biomedical Research, priority 2021, published 2025).
Entries after “also recorded” stand apart in the source; their conditions may differ.

What was measured:
Assay type in all cases: cell-based, human
IR condensates [1] = assay: tc-PALM of IR cluster/condensate dynamics in HepG2 cells expressing IR-Dendra2; conditions: insulin sensitive cells; 20 mM H2O2
Method: Widefield Live-cell super-resolution imaging was performed in a photo-activation localization microscopy (PALM) approach using a Nikon Eclipse Ti microscope with a 100× oil immersion objective. The 405 nm and 561 nm laser beams were combined in an external platform with customized power densities to image Dendra2-tagged molecules as previously reported (56). Cells were maintained at 37° C. in a temperature-controlled platform during imaging, and the CO2 level was maintained at 5% by Leibovitz's L-15 Medium with no phenol red (ThermoFisher #21083027). In each imaging cycle, a 2400-frame video stream including a (256 pixel)2 region of interest (ROI) was recorded in 20 Hz acquisition rate with the EM-gain setting as 1000 on an Andor iXon Ultra 897 EMCCD. Each pixel conjugates with a (160 nm)2 area on the sample side. After PALM imaging, the Hoechst-stained nuclei of the same ROI were imaged with stronger 405 nm excitation through DAPI filter.
Detection localization. For each frame of a raw image, Gaussian particles were identified by pixelwise test of hypotheses, whose peak positions were individually fitted at subpixel resolution by maximum-likelihood regression with Gauss-Newton method (91). An additional deflation loop was performed to avoid missing dimmer particles when they were overshadowed by neighboring brighter ones. This multi-particle detection localization procedure has been integrated in a published, open-source MATLAB software called MTT (91).
Spatial clustering. DBSCAN and “manual selection” hybridized approach was applied to group spatially clustered detections via the qSR software (92). Firstly, DBSCAN was performed to generalize a proposal map of spatially clustered detections. Given that IR condensates can be tiny and transient, a “loose” parameter setting was used when performing the DBSCAN (length-scale=120 nm, N_min=4). This parameter combination was determined by comparing the rendered super-resolved reconstructions with the color-coded cluster maps until the clustering results visually make sense for most ROIs. Secondly, individual clusters were manually selected based on the clustering proposal map from last step. Some custom MATLAB code was used to reconstruct the IR distribution of each ROI superposed with the corresponding nuclei image, which was further cross-compared with the corresponding cluster map to determine which region each cluster belongs to (i.e., plasma-membrane, cytoplasm, or nucleus).
Temporal clustering. For each spatial cluster, time-correlated PALM (tc-PALM) analysis was performed along the time axis to extract the truly colocalized, time-correlated multimolecule bursting events (11, 13-14). The lifetime of a burst is simply defined as the timespan from the first to the last detections. More details about the quantitative validations and statistics of tc-PALM analysis can be found in NOTES and FIG. 11.
Widefield, live-cell, super-resolution imaging was performed in a photo-activation localization microscopy (PALM) approach using a Nikon Eclipse Ti microscope with a 100× oil immersion objective. The 405 nm and 561 nm laser beams were combined in an external platform with customized power densities to image Dendra2-tagged molecules as previously reported^24. Cells were cultured on imaging dishes (MatTek, P35G-1.5-20-C) and then imaged while maintaining both the temperature at 37° C. with a temperature-controlled platform and the level of CO2 at 5% with Leibovitz's L-15 Medium with no phenol red (Thermo Fisher, 21083027). During each imaging cycle, a 2400-frame video stream including a (256 pixel)^2 region of interest (ROI) was recorded in 20 Hz acquisition rate with the EM-gain setting as 1000 on an Andor iXon Ultra 897 EMCCD. Each pixel conjugates with a (160 nm)^2 area on the sample side. After PALM imaging, the Hoechst-stained nuclei of the same ROI were imaged using a stronger 405 nm excitation through DAPI filter. […] Following a 5-minute wait, the cells were imaged for 15-20 minutes.

[2] = system: transcriptional condensates at SMAD7; assay: IR-GFP and SMAD7 intronic RNA FISH colocalization in HepG2 cells; conditions: insulin sensitive cells; H2O2; 3 nM insulin 5 min (FIG. 6E)
IR condensates [3] = assay: Imaging of IR puncta/condensates (immunofluorescence, IR-GFP) in HepG2 cells
Method: For insulin sensitivity and resistance experiments in HepG2 cells, cells were washed with EMEM once and cultured in EMEM for two days. […] To wash out insulin, cells were washed in EMEM seven times, which includes three quick washes, three 5 min washes and a long 20 minute-wash in EMEM at 37° C. In order to investigate insulin response, cells were acutely treated for 5 min with insulin diluted in EMEM supplemented with 1.25% fatty acid-free BSA at 37° C. with 5% CO2 in a humidified incubator.
Metformin (SIGMA, D150959-5G) was resuspended in sterile water to a concentration of 1M and diluted to the reported concentrations in the figures in cell media. […]
HepG2 cells, human liver spheroids and human tissue liver sections were fixed in 4% PFA (VWR, BT140770-10X10) in PBS for 10 min at room temperature. Cells were washed in PBS three times for 5 min and then blocked with 4% IgG-free BSA (VWR, 102643-516) for 15-60 min at room temperature. Cells were then incubated with 1:500 primary antibody in 4% IgG-free BSA at 4° C. overnight. The next day, cells were washed three times with PBS and incubated with 1:500 secondary antibodies in 4% IgG-free BSA at room temperature for 1 hr covered in foil. Cells were washed three times with PBS for 5 min. DNA was stained using 1:5000 Hoechst in PBS for 5 min at RT. Cells were washed three times with PBS for 5 min, stored at 4° C. until imaging. For tissue sections, samples were mounted using Vectashield mounting media (Vector Laboratories, Inc, H-1000). LSM880 microscope with Airyscan detector (ZEISS) was used for image acquisition. Images were then processed using Fiji/ImageJ v2.1.0/153c.
Cells expressing endogenous IR tagged with GFP were grown on 35 mm glass bottom dishes (MatTek Corporation, P35G-1.5-20-C). Cells were imaged at 37° C. using the SM880 Microscope with Airyscan detector with 63× objective and Zen Black software (ZEISS) at the W.M. Keck Microscopy Facility, MIT. Images were then processed using Fiji/ImageJ v2.1.0/153c.
To quantify IR fluorescent signal in puncta, Fiji/ImageJ v2.1.0/153c was used. A circle or an oval was drawn around IR puncta using the oval selection tool and the average fluorescence intensity in the circle/oval (=in the puncta) was determined using the measure tool on Fiji. Background was then subtracted as previously described. To quantify IR fluorescent signal at puncta in various cellular compartments, applicant identified the location of the plasma membrane, cytoplasm, nucleus and RNA FISH spots as follows. The plasma membrane location was identified based on IR immunofluorescence signal, IR-GFP fluorescent signal or CK18 immunofluorescence signal or cell edge. The nucleus was determined by the Hoechst stain for immunofluorescence and tc-PALM experiments or by IR-GFP fluorescence when HepG2 cells expressing IR-GFP were imaged. Given the overlap between Hoechst fluorescence and GFP fluorescence, artefactual green fluorescence coming from the Hoechst confounded IR puncta identification in the nucleus. Since the differences in IR puncta intensity and concentration between cytoplasm and nucleus in HepG2 cells was clear, nuclear outline was easily drawn based on IR-GFP fluorescent signal. Cytoplasm was considered the region between the plasma membrane and the nucleus. RNA FISH spots were identified based on RNA FISH probe fluorescence. Within the FISH spot, IR intensity was measured using the measure tool.
To estimate the number of IR puncta at the plasma membrane, cytoplasm, nucleus or in entire cells, IR puncta were initially counted in a cell slice using Fiji. The number obtained from the cell slice was then multiplied based on the estimated size of the plasma membrane, cytoplasm, nucleus or entire cell, which were obtained considering the length and width of the cell under investigation and the estimated height (˜5 um). […]

Compound	IR condensate dynamics (IR condensates [1])	IR incorporation in transcriptional condensates [2]	incorporation of IR into condensates with insulin stimulation (IR condensates [3]; insulin sensitive cells, 20 mM H2O2 for 30 min)	IR condensates defects (signal intensity and lifetime) (IR condensates [3]; insulin-resistant cells, 1 mM NAC 24 hours (FIGS. 19E-19F, 40B))
OO [H2O2, reference compound]	caused reduced IR condensate dynamics; also recorded: altered IR condensate dynamics	caused a reduction in IR incorporation in transcriptional condensates	caused a reduction in the incorporation of IR into condensates with insulin stimulation	
CC(=O)N[C@@H](CS)C(=O)O [NAC, N-acetyl cysteine, reference compound]				partially rescued IR condensates defects
